Measured values reported in patent US7670613B2, “Androgen modulators” (Pfizer Inc., priority 2004, dated 2010).

How the values were obtained:
male Syrian hamsters = experiment: Animal model for inhibition of sebum production (hamster ear); assay type: in vivo, Syrian hamster; settings: topical 3.0 w/v %; for % CE reduction: cholesterol ester vs vehicle control; for % CE reduction / % WE reduction: twice daily, five days a week, 4 weeks, right ear; for Sum of WE & CE: sum of % WE and % CE reduction; for % WE reduction: wax ester vs vehicle control
Description: Animal Model for Inhibition of Sebum Production
Luderschmidt et al describes an animal model for testing whether compounds are capable of modulating sebum secretion. Arch. Derm. Res. 258, 185-191 (1977). This model uses male Syrian hamsters, whose ears contain sebaceous glands. The product of Example 14 was screened in this model.
Testing for sebum inhibition was carried out in the following manner. Male Syrian hamsters aged 9 to 10 weeks were introduced into the laboratory environment and acclimated for 2 weeks prior to use in the study. Each group consisted of 5 animals and run in parallel with vehicle and positive controls. Prior to administration, a sufficient quantity each compound was dissolved in 1 mL of a solvent consisting of ethanol, and propylene glycol (70/30% v/v) to achieve a final concentration of 3.0 w/v %.
Animals were dosed topically twice daily, five days a week, for 4 weeks. Each dose consisted of 25 micro liters of vehicle control or drug. The dose was applied to the ventral surfaces of both the right and left ears. All animals were sacrificed approximately 18-24 hours after the final dose. The right ears were collected from each animal and used for sebum analysis.
The ears were prepped for HPLC analysis in the following manner. One 8 mm distal biopsy punch was taken, just above the anatomical “V” mark in the ear to normalize the sample area. The punch was pulled apart. The ventral biopsy surface (the area where the topical dose was directly applied to the sebaceous glands) was retained for testing and the dorsal surface of the biopsy punch was discarded.
Tissue samples were blown with N2 gas and stored at −80° C. under nitrogen until HPLC analysis. In addition to ear samples, an aliquot of each drug and vehicle (at least 250 ul) was also stored at −80° C. for inclusion in the HPLC analysis.
HPLC analysis was carried out on an extract of the tissue sample. Tissue samples were contacted with 3 ml of solvent (a 4:1 admixture of 2,2,4-trimethylpentane and isopropyl alcohol). The mixture was shaken for 15 minutes and stored overnight at room temperature, protected from light. The next morning 1 milliliter of water was added to the sample and shaken for 15 minutes. The sample was then centrifuged at approximately 1500 rpm for 15 minutes. Two ml of the organic phase (top layer) was transferred to a glass vial, dried at 37° C., under nitrogen, for approximately 1 hour, and then lyophilized for approximately 48 hours. The samples were then removed from the lyophilizer and each vial was reconstituted with 600 μl of solvent A (trimethylpentane/tetrahydrofuran (99:1). The samples were then recapped and vortexed for 5 minutes.
200 μl of each sample was then transferred to a pre-labeled 200 μl HPLC vial with 200 μL glass inserts. The HPLC vials were placed in the autosampler tray for the Agilent 1100 series HPLC unit. The Agilent 1100 HPLC system consisted of a thermostated autosampler, a quarternary pump, a column heater, and an A/D interface module. All components were controlled by Agilent ChemStation software. A Waters Spherisorb S3W 4.6×100 mm analytical column was maintained at 30° C. by the Agilent column heater unit. The HPLC autosampler was programmed to maintain the sample temperature at 20 C. throughout the run.
10 uL of each sample was injected in triplicate into the column. Two solvents were used for the solvent gradient. Solvent A was an admixture of trimethylpentane and tetrahydrofuran (99:1). Solvent B was ethylacetate. The gradient utilized is described in the table below: […]
The Sedex 75 Evaporative Light Scattering Detector (ELSD) was operated at 45° C. with a gain of 5, and N2 pressure maintained at 3.1 bar. Analog signal obtained by the instrument was sent to the Agilent A/D interface module where it was converted to a digital output. The conversion was based on a 10000 mAU/volt set point and the data rate was set at 10 Hz (0.03 min). […]

male C3H/HeN mice = experiment: Modified telogen conversion assay; assay type: in vivo, mouse; settings: topical 1% and 3% w/v, twice daily for 4 weeks, observed 35 days or longer
From the text: The telogen conversion assay measures the potential of a compound to convert the resting stage of the hair growth cycle (“telogen”) to the active stage of the hair growth cycle (“anagen”) in mice. This assay takes advantage of the fact that the fur (i.e. hair) of 7-week-old C3H/HeN mice is in the telogen phase. This phase continues until about 75 days of age. In this assay, selected areas of the mice are shaved, contacted with a test agent, or a control, and the difference in the rate of hair growth is measured (i.e. induction of the anagen phase). The first sign of anagen is the darkening of skin color as melanocytes in the follicles start to synthesize melanin, in preparation for the production of pigmented hairs. This model has a number of advantages. This includes the ready availability of female CH3HeN mice, the ability to screen large numbers of compounds quickly, and the ease of housing and handling such animals.
It has been discovered that male C3H/HeN mice may be used in the telogen conversion assay, when evaluating anti-androgen test compounds. Thus, the model relates to a modification of the existing telogen conversion assay. […]
The treatment area was observed and graded every other day for signs of hair growth. The hair growth response was quantified by recording, for each animal, the day on which signs of hair growth first appeared over the treated area. […]

SMILES | % CE reduction (male Syrian hamsters) | Sum of WE & CE (male Syrian hamsters) | % WE reduction (male Syrian hamsters) | Initiation of anagen (first signs of hair growth) versus vehicle control (male C3H/HeN mice)
N#Cc1ccc(O[C@@H]2CCCC[C@H]2C#N)cc1C(F)(F)F (single isomer, unassigned) [Example 72, (trans)-(−)-4-(2-Cyano-cyclohexyloxy)-2-trifluoromethyl-benzonitrile] | 68% | 153 | 85% | 
N#Cc1ccc(O[C@@H]2CCCCC2C#N)cc1C(F)(F)F (stereo in doubt) [Example 14, -4-(2-Cyano-cyclohexyloxy)-2-trifluoromethyl-benzonitrile] | 84% | 179 | 95% | 
CC1CCCCC1Oc1ccc(C#N)c(C(F)(F)F)c1 (stereo not shown) [Example 8, 4-(2-Methyl-cyclohexyloxy)-2-trifluoromethyl-benzonitrile] |  |  |  | not initiated in either of the test groups prior to its occurrence in the vehicle control group
